For one data set, the system named is Caco-2. Put plainly: Caco-2. It is filed as in vitro ADME. The source says: (§1) Overt reactive oxygen species (ROSs) can be produced due to noise and certain ototoxic drugs that can damage the hair cells of the ear, resulting in either temporary or permanent hearing loss. Exposure to blast waves and continuous noise not only damaged the inner ear, but caused cell death in the hippocampus, suppressed neurogenesis and impaired memory function. Aging as well can manifest in mitochondrial dysfunction leading to hearing loss. It is emerging that attempts to treat hearing loss by targeting downstream issues is not very effective. In one embodiment, the compositions and methods of the invention relate to targeting oxidative stress upstream at the mitochondria that may be causative for many disorders. There have been a variety of attempts to lower cellular stress, such as administering anti-oxidants, however these drugs have limited tissue penetration into the brain and lower ROSs after they have been formed. […] While not being bound to theory, it is postulated that DNP modulates the mitochondrial membrane potential having a significant impact at preventing ROS formation in isolated mitochondria and in the treated wildtype mice. DNP treatment 3-hours post-ischemia reduced cerebral infarct volume 40% by protecting the penumbra or “threaten tissue” and could provide similar benefits after a blast to protect inner hair cells from eminent cell death. […]

A short description of data set [1]: Plasma pharmacokinetics of 2,4-DNP, i.v. and oral. The class given is in vivo, Sprague-Dawley male rats. Here is the method:
All procedures that involved the use of rats were conducted in accordance with the guidelines set forth by the University of Arkansas for Medical Sciences (UAMS) Institutional Animal Care and Use Committee established by the National Institutes of Health's Guide for the Care and Use of Laboratory Animals (1996). Male Sprague-Dawley rats weighing 250-300 grams were housed three per cage with ad libitum access to food and water in the Division of Laboratory Animal Resources, UAMS. Rats were anesthetized with isofluorane (2-5%)/oxygen (1.5-2.0 L/min) and surgically implanted with cannulae in the jugular (i.v. dosing) and femoral (blood sampling) veins. […] Following appropriate evidence of successful recovery from surgery, IV or oral dosing was performed and blood samples (0.15 mL) were collected at 0, 5, 15, 30, 45, 60, 120, 240 and 480 min. Plasma samples were prepared and analysis was run using a LC/MS/MS spectrometry.
2,4-DNP was dissolved in a phosphate-saline buffer solution, pH 7.4 containing 5% DMSO and 20% PEG-400 and filtered through a 0.2-μm filter. For the oral route, rats were gavaged with 5 mg/kg in a total volume of 8 mL/kg from a stock solution containing 0.625/mL of 2,4-DNP. For the i.v. injection, a total volume of 0.8 mL/kg was used at a dose of 1 mg/kg from a stock solution containing 1.25 mg/mL.
Jugular and femoral vein-catheterized Sprague-Dawley male rats (weights 250-300 g) were treated with 2,4-DNP at a single oral dose of 5 mg/kg (n=4) or a single i.v. dose of 1 mg/kg (n=3). For each i.v. and oral experiment, blood samples (0.15 mL) were collected at 0, 5, 15, 30, 45, 60, 120, 240 and 480 min. The withdrawn blood was replaced with heparinized saline (0.15 mL). Blood samples were centrifuged at 10,000 rpm for 10 min at room temperature, and plasma samples were prepared and analysis was run using a sensitive LC/MS/MS spectrometry method (see below).
To isolate the analytes from rat plasma, 50 μL of control or treated plasma fortified with 10 μL of 2,4-DNP-d3 (10 μg/mL) as an internal standard to which 0.3 mL of methanol followed by 0.3 mL of acetonitrile was added. The mixture was vortex-mixed for 30 s and centrifuged for 10 min at 10,000 rpm at room temperature. The supernatant was transferred into 5 mL glass tubes and evaporated to dryness at 37° C. under nitrogen gas. The pellet was reconstituted with 50 μL of acetonitrile, vortex-mixed for 30 sec, followed by sonication for 1 min. Following centrifugation at 1000 rpm for 10 min at room temperature, 5 μL of the supernatant was then injected onto the column, and analytes were quantified by a LC/MS/MS spectrometry.
1—Plasma concentrations of 2,4-DNP after a single i.v. injection of 2,4-DNP of 1 mg/kg or 5 mg/kg oral administration; 2—Plasma concentrations of II-38 and 2,4-DNP-released from II-38 after an i.v. injection 1.6 mg/kg of II-38 eq. to 1 mg/kg of 2,4-DNP or an oral dose of 8, 40 and 80 mg/kg of II-38 eq. to 5, 25 and 50 mg/kg of 2,4-DNP, respectively. The mass spectrometer was an Agilent quadrupole mass spectrometer operated in the multiple reaction monitoring (MRM) mode. 2,4-DNP-d3 was used as an internal standard. 2,4-DNP, II-38 and 2,4-DNP-d3 were separated using an Alltima C18 column, 5 μm, 3.2×150 mm (Grace Discovery Sciences, IL, USA) equipped with a guard column: Alltima C18, 5 μm, 4.6×7.5 mm (Grace Discovery Sciences, IL, USA). The mobile phase consists of water with 0.005% formic acid as solvent A and acetonitrile with 0.005% formic acid as solvent B. For analysis of 2,4-DNP, II-38 and 2,4-DNP-d3 compounds, the separation was achieved using a gradient of 10 to 90% solvent B in 3.5 min, which was maintained at 90% B for the next 3.30 min and then equilibrated back to the initial conditions over 3.20 min. The flow rate was 0.8 mL/min with a column temperature of 30° C. The sample injection volume was 5 μL. […]

For another data set, the system named is CYP. Put plainly: Inhibition of CYP. The class given is in vitro ADME.
Excerpt: as §1

The conditions of data set [2]: in rats, general statement; cited from earlier work.
For the next data set, the system named is wildtype mice. Put plainly: Lifespan of chronically treated wildtype mice. It is filed as in vivo. The settings on record: wildtype mice chronically treated with an extraordinarily low dose.
Excerpt: as §1

In a further data set the test system is cerebral infarct. The settings on record: treatment 3-hours post-ischemia; cited from earlier work.
The mark [3] stands for this setting: 2,4-DNP single oral dose 5 mg/kg, n = 4, 5 mg/kg.
Setting [4] is: 2,4-DNP single oral dose 5 mg/kg, n = 4, listed as DNP, 5 mg/kg.

Each structure is given as a SMILES string. Where two headings read alike, the source gives them in different places.

Data on 1 compound can be found in patent US11406642B2, “DNP and DNP prodrug treatment of neuromuscular, neurodegenerative, autoimmune, developmental, traumatic brain injury, concussion, dry eye disease, hearing loss and/or metabolic diseases” (priority 2016, dated 2022).

In general, AUC refers to the area under the concentration-time curve, a measure of exposure. The Cmax is the maximum level reached in the sampled fluid or tissue. Broadly, the Tmax is the time from dosing to the highest level. Usually half-life stands for the time needed for the level to fall by half in the phase considered. The term bioavailability denotes the share of a dose that reaches the circulation, judged against a reference dose that is usually intravenous. Read a low bioavailability as poor availability. Turning to `O=[N+]([O-])c1ccc(O)c([N+](=O)[O-])c1` [2,4-DNP, 2,4-dinitrophenol], the “inhibition, Caco-2” value with Caco-2 was “no inhibition”. Moreover, the AUC was 13288.0 ± 1634.1 µg·min/mL in data set [1] (setting [3]); 13288 µg·min/mL in data set [1] (setting [4]); 1350 µg·min/mL in data set [1] (male, Sprague-Dawley, rat, plasma, iv, 2,4-DNP single i.v. dose 1 mg/kg, n = 3, read-out: AUC (converted)); 13300 µg·min/mL in data set [1] (male, Sprague-Dawley, rat, plasma, 2,4-DNP single oral dose 5 mg/kg, n = 4, read-out: AUC (converted)). Moreover, the t1/2 in data set [1] (setting [3]) came out at 2.272 ± 0.182 h; in data set [1] (setting [4]), 2.27 h. The Cmax in data set [1] (setting [4]) stood at 50 µg/mL; in data set [1] (male, Sprague-Dawley, rat, plasma, iv, 1 mg/kg, 2,4-DNP single i.v. dose 1 mg/kg, n = 3, read-out: Cmax), 11.5 ± 6.2 µg/mL; in data set [1] (male, Sprague-Dawley, rat, plasma, po, 5 mg/kg, 2,4-DNP single oral dose 5 mg/kg, n = 4, read-out: Cmax) it was 50.1 ± 7.4 µg/mL. In addition, the Tmax in data set [1] (setting [4]) is 0.633 h; in data set [1] (male, Sprague-Dawley, rat, plasma, po, 5 mg/kg, 2,4-DNP single oral dose 5 mg/kg, n = 4, read-out: tmax (converted)), 0.625 h. In addition, the half-life in data set [1] (male, Sprague-Dawley, rat, plasma, iv, 1 mg/kg, 2,4-DNP single i.v. dose 1 mg/kg, n = 3) was 1.5 ± 0.165 h; in data set [1] (male, Sprague-Dawley, rat, plasma, po, 5 mg/kg, 2,4-DNP single oral dose 5 mg/kg, n = 4), 2.27 ± 0.182 h; in data set [2], about 6 h. In data set [1] (male, Sprague-Dawley, rat, plasma, iv, 2,4-DNP single i.v. dose 1 mg/kg, n = 3), this compound gave a clearance of 1.2 ± 0.6 mL/min/kg. Moreover, in data set [1] (male, Sprague-Dawley, rat, plasma, iv, 2,4-DNP single i.v. dose 1 mg/kg, n = 3, read-out: Vss), the Vd turned out to be 0.161 ± 0.135 L/kg. In addition, the bioavailability in data set [1] (male, Sprague-Dawley, rat, plasma, 2,4-DNP single oral dose 5 mg/kg, n = 4) came out at 65.8 ± 11.4%. Also, the “inhibition to CYP” value with CYP is on record as “no inhibition”. Besides, in the data set with wildtype mice, the lifespan result was “living longer than untreated mice”. For the same compound, the “reduction of cerebral infarct volume” value with cerebral infarct is 40%.
